The test system of data set [1] is p-CHK1 (ATR-CHK1 pathway). Put plainly: CHK1 phosphorylation (immunoblot / immunostaining) after UV or HU. Particulars: inhibitor added after UV irradiation, fixed after 2 hours, anti-p-CHK1 immunostaining. Format: cell-based, human. The text has this:
FIG. 1D is a quantification of the percentage of p-CHK1-positive cells from UV-treated data of FIG. 1C. […] In each experiment, >100 cells were randomly chosen to determine the percentage of p-CHK1-positive cells.
The two DNA damage response kinases ATR and ATM play key roles in the protection of genomic integrity from genotoxic stress by sensing a single-strand break and DSB (Double strand break), respectively. To identify the functions of TTP in the DNA damage response, we first analyzed the phosphorylation levels of CHK1 (p-CHK1) and CHK2 (p-CHK2) as readouts of ATR and ATM activity, respectively.
Then, we treated cells with HU, another CHK1 phosphorylation-triggering agent which depletes the deoxynucleoside triphosphate pool, thus inducing the RSR (Replication Stress Response).

Data set [2] deals with A549 (human lung carcinoma) cells. Put plainly: DNA fiber analysis of replication forks. Format: cell-based. Particulars: unperturbed A549 cells; IdU and CldU 20 min each; control 0.36 μm/min. Here is the method: The ratios of CldU to IdU were calculated from active replication forks. […] Single-strand DNA (ssDNA; blue) was labelled with ssDNA-specific antibodies. Percentages of stalled forks were calculated by dividing the number of red-only tracts (stalled forks) by the total number of red-only plus red-green tracts (stalled and restarted forks, respectively). Analyses were performed on a minimum of 200 individual DNA fibers. […] The recovery of S phase progression is presented as a percentage of EdU positive cells at 6 h after the release from HU treatment. In each experiment, >100 cells were randomly chosen to determine the percentage of EdU-positive cells. […] The ratio of CldU to IdU in terms of length was calculated from active replication forks (red-green). […]
(1) ATR-CHK1 pathway accounts for the central replication stress responses and once activated it helps the cell to survive and faithfully complete DNA replication under stress. Having shown that TTP is found to be implicated in the ATR-CHK1 activation, as in Example 1 above, we decided to examine the effect of TTP on the replication fork stability using DNA fiber analysis, the clearest read-out of replication stress which relies on the incorporation of nucleotide analogues. […]
(3) We next examined the involvement of TTP in stalled fork protection. […] We then analyzed the relative shortening of CldU fiber as indicative of fork degradation. […]

With `CNCc1ccc(-c2cc(-c3nc(-c4ccc(S(=O)(=O)C(C)C)cc4)cnc3N)on2)cc1` [VE-822], the “residual p-CHK1 signal in TTP-deficient cells” value in data set [1] is “vanished”.

“siClaspin: siRNA (SEQ ID NO: 20) introduced into cells to make Claspin-deficient cells (AACCUUGCUUAGAGCUGAGUCUUCA; listed as RNA, chemistry not given here)” came in with an average fork velocity in data set [2] of 0.22 μm/min.

The values above are taken from patent US20230080252A1, “ANTICANCER ADJUVANT AND PHARMACEUTICAL COMPOSITION FOR TREATING ANTICANCER-AGENT-RESISTANT CANCER, AND KIT COMPRISING SAME” (DONG-A UNIVERSITY RESEARCH FOUNDATION FOR INDUSTRY-ACADEMY …, priority 2020, published 2023).
